The values below come from US20100184809A1, “Heterocyclic FXR Binding Compounds” (PHENEX PHARMACEUTICALS AG, priority 2006, published 2010).

This experiment concerns the target T1, human FXRalpha ligand binding domain (LBD) (Homo sapiens, UniProt Q96RI1).
T1 construct: made in house; host or cells: E. coli BL21(DE3), vector pDEST15
T1 sequence (Q96RI1 187-472 isoform Q96RI1-2): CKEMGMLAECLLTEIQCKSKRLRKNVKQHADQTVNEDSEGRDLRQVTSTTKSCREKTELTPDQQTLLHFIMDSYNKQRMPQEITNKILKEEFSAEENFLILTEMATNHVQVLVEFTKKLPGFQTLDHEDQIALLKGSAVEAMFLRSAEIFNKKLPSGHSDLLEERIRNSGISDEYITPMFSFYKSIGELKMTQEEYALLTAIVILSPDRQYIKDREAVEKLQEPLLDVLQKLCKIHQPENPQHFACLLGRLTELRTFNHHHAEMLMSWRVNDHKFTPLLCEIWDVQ
The experiment can be described thus: FRET activity assay (ligand mediated cofactor peptide interaction, LANCE). It counts as biochemical. The note with it: GST-FXR-LBD / biotinylated SRC-1 peptide (676-700). On the procedure:
Determination of a ligand mediated cofactor peptide interaction to quantify ligand binding to the nuclear receptor Farnesoid X Receptor (FXR) was performed as follows:
Preparation of human farnesoid X receptor (FXR) alpha ligand binding domain: The human FXRalpha ligand binding domain (LBD) was expressed in E. coli strain BL21(DE3) as an N-terminally glutathione-[…] (GST) tagged fusion protein. The DNA encoding the FXR ligand binding domain was cloned into vector pDEST15 (Invitrogen). Expression was under control of an IPTG inducible T7 promoter. The amino acid boundaries of the ligand binding domain were amino acids 187-472 of Database entry NM_005123 (RefSeq). Expression and purification of the FXR-LBD: An overnight preculture of a transformed E. coli strain was diluted 1:20 in LB-Ampicillin medium and grown at 30° C. to an optical density of OD600=0.4-0.6. Gene expression was then induced by addition of 0.5 mM IPTG. Cells were incubated an additional 6 h at 30° C., 180 rpm. Cells were collected by centrifugation (7000×g, 7 min, room temperature). Per liter of original cell culture, cells were resuspended in 10 ml lysis buffer (50 mM Glucose, 50 mM Tris pH 7.9, 1 mM EDTA and 4 mg/ml lysozyme) and left on ice for 30 min. Cells were then subjected to sonication and cell debris removed via centrifugation (22000×g, 30 min, 4° C.). Per 10 ml of supernatant 0.5 ml prewashed Glutathione 4B sepharose slurry (Qiagen) was added and the suspension kept slowly rotating for 1 h at 4° C. Glutathione 4B sepharose beads were pelleted by centrifugation (2000 g, 15 sec, 4° C.) and washed twice in wash buffer (25 mM Tris, 50 mM KCl, 4 mM MgCl2 and 1M NaCl). The pellet was resuspended in 3 ml elution buffer per liter of original culture (elution buffer: 20 mM Tris, 60 mM KCl, 5 mM MgCl2 and 80 mM glutathione added immediately prior to use as powder). The suspension was left rotating for 15 min at 4° C., the beads pelleted and eluted again with half the volume of elution buffer than the first time. The eluates were pooled and dialysed overnight in 20 mM Hepes buffer (pH 7.5) containing 60 mM KCl, 5 mM MgCl2 as well as 1 mM dithiothreitol and 10% (v/v) glycerol. The protein was analysed by SDS-Page.
The method measures the ability of putative ligands to modulate the interaction between the purified bacterial expressed FXR ligand binding domain (LBD) and a synthetic biotinylated peptide based on residues 676-700 of SRC-1 (LCD2, 676-700). The sequence of the peptide used was B-[…]-COOH where the N-terminus was biotinylated (B). The ligand binding domain (LBD) of FXR was expressed as fusion protein with GST in BL-21 cells using the vector pDEST15. Cells were lysed by sonication, and the fusion proteins purified over glutathione sepharose (Pharmacia) according to the manufacturers instructions. For screening of compounds for their influence on the FXR-peptide interaction, the Perkin Elmer LANCE technology was applied. This method relies on the binding dependent energy transfer from a donor to an acceptor fluorophor attached to the binding partner of interest. For ease of handling and reduction of background from compound fluorescence LANCE technology makes use of generic fluorophore labels and time resolved detection Assays were done in a final volume of 2 5 μl in a 384 well plate, in a Tris-based buffer (20 mM Tris-HCl pH 7,5; 60 mM KCl, 5 mM MgCl2; 35 ng/μl BSA), containing 20-60 ng/well recombinantly expressed FXR-LBD fused to GST, 200-600 nM N-terminally biotinylated peptide, representing SRC1 aminoacids 676-700, 200 ng/well Streptavidin-xIAPC conjugate(Prozyme) and 6-10 ng/well Eu W1024 antiGST (Perkin Elmer). DMSO content of the samples was kept at 1%. After generation of the assay mix and diluting the potentially FXR modulating ligands, the assay was equilibrated for one hour in the dark at room temperature in FIA-plates black 384 well (Greiner). […]

Structures are written as SMILES.

Compound `Cc1nc(OCc2c(-c3c(Cl)cccc3Cl)noc2C(C)C)ccc1NC(=O)c1ccc(C(=O)O)cc1` [Example 1, N-{6[3-(2,6-dichloro-phenyl)-5-isopropyl-isoxazol-4-ylmethoxy]-2-methyl-pyridin-3-yl}-terephthalamic acid] returned an IC50 of no more than 1 µM. Next, `Cc1nc(OCc2c(-c3c(Cl)cccc3Cl)noc2C(C)C)ccc1N(C)C(=O)c1ccc(C(=O)O)cc1` [Example 2, 4-((6-((3-(2,6-Dichlorophenyl)-5-isopropylisoxazol-4-yl)methoxy)-2-methylpyridin-3-yl)(methyl)carbamoyl)benzoic acid]: no more than 1 µM. Next, `Cc1nc(OCc2c(-c3c(Cl)cccc3Cl)noc2C(C)C)ccc1NS(=O)(=O)c1ccc(C(=O)O)cc1` [Example 3, 4-{6-[3-(2,6-Dichloro-phenyl)-5-isopropyl-isoxazol-4-ylmethoxy]-2-methyl-pyridin-3-ylsulfamoyl}-benzoic acid]: no more than 1 µM; `COC(=O)c1ccc(C(=O)Nc2ccc(OCc3c(-c4c(Cl)cccc4Cl)noc3C(C)C)nc2C(F)(F)F)cc1` [Example 5, N-{6-[3-(2,6-dichloro-phenyl)-5-isopropyl-isoxazol-4-ylmethoxy]-2-trifluoromethyl-pyridin-3-yl}-terephthalamic acid methyl ester]: 1 to 10 µM; `CC(C)c1onc(-c2c(Cl)cccc2Cl)c1COc1ccc(NS(=O)(=O)c2ccc(C(=O)O)cc2)c(C(F)(F)F)n1` [Example 8, 4-{6-[3-(2,6-dichloro-phenyl)-5-isopropyl-isoxazol-4-ylmethoxy]-2-trifluoromethyl-pyridin-3-ylsulfamoyl}-benzoic acid]: 1 to 10 µM. Next, `CC(C)c1onc(-c2c(Cl)cccc2Cl)c1COc1ccc(N(C)S(=O)(=O)c2ccc(C(=O)O)cc2)c(C(F)(F)F)n1` [Example 9, 4({6-[3-(2,6-Dichloro-phenyl)-5-isopropyl-isoxazol-4-ylmethoxy]-2-trifluoromethyl-pyridin-3-yl}-methyl-sulfamoyl)-benzoic acid]: no more than 1 µM. Regarding `COc1nc(OCc2c(-c3c(Cl)cccc3Cl)noc2C(C)C)ccc1NC(=O)c1ccc(C(=O)O)cc1` [Example 10, N-{6-[3-(2,6-dichloro-phenyl)-5-isopropyl-isoxazol-4-ylmethoxy]-2-methoxy-pyridin-3-yl}-terephthalamic acid], the IC50 was no more than 1 µM. Next, `COc1nc(OCc2c(-c3c(Cl)cccc3Cl)noc2C(C)C)ccc1N(C)C(=O)c1ccc(C(=O)O)cc1` [Example 11, N-{6-[3-(2,6-dichloro-phenyl)-5-isopropyl-isoxazol-4-ylmethoxy]-2-methoxy-pyridin-3-yl}-N-methyl-terephthalamic acid]: 1 to 10 µM.

Consider `COc1nc(OCc2c(-c3c(Cl)cccc3Cl)noc2C(C)C)ccc1NS(=O)(=O)c1ccc(C(=O)O)cc1` [Example 12, 4-{6[3-(2,6-dichloro-phenyl)-5-isopropyl-isoxazol-4-ylmethoxy]-2-methoxy-pyridin-3-ylsulfamoyl}-benzoic acid], for which the IC50 is no more than 1 µM.

Consider `COc1nc(OCc2c(-c3c(Cl)cccc3Cl)noc2C(C)C)ccc1N(C)S(=O)(=O)c1ccc(C(=O)O)cc1` [Example 13, 4-({6-[3-(2,6-dichloro-phenyl)-5-isopropyl-isoxazol-4-ylmethoxy]-2-methoxy-pyridin-3-yl}-methyl-sulfamoyl)-benzoic acid], for which the IC50 was no more than 1 µM. In the case of `Cc1cc(OCc2c(-c3c(Cl)cccc3Cl)noc2C(C)C)ncc1NC(=O)c1ccc(C(=O)O)cc1` [Example 14] it was no more than 1 µM; in that of `Cc1onc(-c2c(Cl)cccc2Cl)c1COc1ccc(NC(=O)c2ccc(C(=O)O)cc2)cn1` [Example 16, 4-(6-((3-(2,6-dichlorophenyl)-5-methylisoxazol-4-yl)methoxy)pyridin-3-ylcarbamoyl)benzoic acid], 1 to 10 µM; in that of `Cc1onc(-c2c(Cl)cccc2Cl)c1COc1ccc(NS(=O)(=O)c2cccc(C(=O)O)c2)cn1` [Example 17, 3-(N-(6-((3-(2,6-dichlorophenyl)-5-methylisoxazol-4-yl)methoxy)pyridin-3-yl)sulfamoyl)benzoic acid], 1 to 10 µM. The compound `Cc1onc(-c2c(Cl)cccc2Cl)c1COc1ccc(NS(=O)(=O)c2ccc(C(=O)O)cc2)cn1` [Example 18, 4-(N-(6-((3-(2,6-dichlorophenyl)-5-methylisoxazol-4-yl)methoxy)pyridin-3-yl)sulfamoyl)benzoic acid] showed an IC50 of 1 to 10 µM. Next, `COC(=O)c1cccc(C(=O)Nc2ccc(OCc3c(-c4c(Cl)cccc4Cl)noc3C(C)C)nc2C(F)(F)F)c1` [Example 20, N-(6-[3-(2,6-Dichloro-phenyl)-5-isopropyl-isoxazol-4-ylmethoxy]-2-trifluoromethyl-pyridin-3-yl)-isophthalamic acid methyl ester]: 1 to 10 µM; `CC(C)c1onc(-c2c(Cl)cccc2Cl)c1COc1ccc(N(C)C(=O)c2cccc(C(=O)O)c2)c(C(F)(F)F)n1` [Example 22, 3-((6-((3-(2,6-Dichlorophenyl)-5-isopropylisoxazol-4-yl)methoxy)-2-(trifluoromethyl)pyridin-3-yl)(methyl)carbamoyl)benzoic acid]: no more than 1 µM. In the case of `CC(C)c1onc(-c2c(Cl)cccc2Cl)c1COc1cnc(N(C)Cc2ccc(C(=O)O)cc2)c(Cl)c1` [Example 31, 4-(((3-Chloro-5-((3-(2,6-dichlorophenyl)-5-isopropylisoxazol-4-yl)methoxy)pyridin-2-yl)(methyl)amino)methyl)benzoic acid] it was no more than 1 µM; in that of `CC(C)c1onc(-c2c(Cl)cccc2Cl)c1COc1ccc(N(C)Cc2ccc(C(=O)OCCO)cc2)c(C(F)(F)F)n1` [Example 33, 2-Hydroxyethyl 4-(((6-((3-(2,6-dichlorophenyl)-5-isopropylisoxazol-4-yl)methoxy)-2-(trifluoromethyl)pyridin-3-yl)(methyl)amino)methyl)benzoate], no more than 1 µM. Next, `CC(C)c1onc(-c2c(Cl)cccc2Cl)c1COc1ccc(N(C)Cc2ccc(C(=O)OCC(O)CO)cc2)c(C(F)(F)F)n1` (centres unmarked) [Example 34, 2,3-Dihydroxypropyl 4-(((6-((3-(2,6-dichlorophenyl)-5-isopropylisoxazol-4-yl)methoxy)-2-(trifluoromethyl)pyridin-3-yl)(methyl)amino)methyl)benzoate]: no more than 1 µM; `CC(C)c1onc(-c2c(Cl)cccc2Cl)c1COc1ccc(N(C)Cc2ccc(C(=O)NCC(O)CO)cc2)c(C(F)(F)F)n1` (centres unmarked) [Example 35, 4-(((6-((3-(2,6-Dichlorophenyl)-5-isopropylisoxazol-4-yl)methoxy)-2-(trifluoromethyl)pyridin-3-yl)(methyl)amino)methyl)-N-(2,3-dihydroxypropyl)benzamide]: no more than 1 µM.

As usually defined, the IC50 is the point on the concentration scale where inhibition reaches its midpoint.
